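GI50 = concentration required for 50% inhibition of growth. TGI denotes the concentration required for complete inhibition of growth.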
Tests used:
Assay in all cases: DTP human tumour cell line panel, 384-well format
[1] = tested on: 786-0 renal
[2] = tested on: A549 NSCLC
[3] = tested on: CAKI-1 renal
[4] = tested on: COLO 205 colon
[5] = tested on: DU-145 prostate
[6] = tested on: HCC-2998 colon
[7] = tested on: HOP-62 NSCLC
[8] = tested on: HT29 colon
[9] = tested on: LOX IMVI melanoma
[10] = tested on: PC-3 prostate
[11] = tested on: RXF 393 renal
[12] = tested on: SNB-75 CNS
[13] = tested on: TK-10 renal

## CCNC(=O)c1cc2c(-c3cc(C(C)(C)O)ccc3Oc3c(C)cc(F)cc3C)cn(C)c(=O)c2[nH]1
[1]
  GI50: 1.24 µM
  TGI: 12.3 µM
[2]
  GI50: 1.51 µM
  TGI: 12 µM
[3]
  GI50: 0.265 µM
  TGI: 10.7 µM
[4]
  GI50: 1.1 µM
  TGI: 2.75 µM
[5]
  GI50: 2.52 µM
  TGI: 14.7 µM
[6]
  GI50: 0.542 µM
  TGI: 2.03 µM
[7]
  GI50: 1.03 µM
  TGI: 4.95 µM
[8]
  GI50: 1.24 µM
  TGI: 13.4 µM
[9]
  GI50: 0.507 µM
  TGI: 1.84 µM
[10]
  GI50: 1.41 µM
  TGI: 12.6 µM
[11]
  GI50: 1.22 µM
  TGI: 3.55 µM
[12]
  GI50: 1.5 µM
  TGI: 10.3 µM
[13]
  GI50: 0.366 µM
  TGI: 2.96 µM

From PubChem BioAssay (NCI)
